For 27 molecules, MIC results are on record in ChEMBL document CHEMBL1135361, “Potent in vitro methicillin-resistant Staphylococcus aureus activity of 2-(1H-indol-3-yl)tetrahydroquinoline derivatives” (2002).

The structures appear in SMILES notation. In brackets after ≈: the same amount, converted by molar mass. A value given as a limit tells only on which side of the number the result lay.

The subject of the first experiment is Enterococcus faecium. Kind of experiment: Minimum inhibitory concentration against vancomycin-resistant Enterococcus faecium (VRE). It is filed as functional.
Conditions: not given
As a reminder, the MIC is the lowest concentration that inhibits growth of the organism. In turn, `Clc1ccc2c(c1)[C@H]1NCC[C@H]1[C@@H](c1c[nH]c3ccc(Cl)cc13)N2` returned an MIC greater than 25 µg/mL. As to `NCc1cc(-c2c[nH]c3ccc(Br)cc23)nc2cc(Cl)ccc12`, the lowest concentration to inhibit growth (MIC) was 1.56 µg/mL (≈ 4.03 µM). `Clc1ccc2ccc(-c3c[nH]c4ccc(Br)cc34)nc2c1` came in with an MIC greater than 25 µg/mL. On the same count and under the same terms, the result for `Clc1ccc2c(c1)[C@H]1NCC[C@H]1[C@H](c1c[nH]c3ccc(Cl)cc13)N2` reads greater than 25 µg/mL.

In the next experiment the test system is Staphylococcus aureus. Kind of experiment: Minimum inhibitory concentration against methicillin-resistant Staphylococcus aureus.
Conditions: not given
Format: functional.
In turn, `Clc1ccc2c(c1)[C@H]1OCC[C@H]1[C@@H](c1c[nH]c3ccc(Br)cc13)N2` (stereo in doubt) showed an MIC of 0.31 µg/mL (≈ 0.768 µM). The same measure, in the same setting: the value for `Clc1ccc2c(c1)[C@H]1OCC[C@H]1[C@@H](c1c[nH]c3ccc(Br)cc13)N2` (stereo in doubt; 9) was 3.13 µg/mL (≈ 7.75 µM).

Still in this experiment, the particulars now being: Staphylococcus aureus; read-out: MIC.
Regarding `OCC#Cc1ccc2c(c1)[C@H]1OCC[C@H]1[C@@H](c1c[nH]c3ccc(Br)cc13)N2`, the MIC was 3.13 µg/mL (≈ 7.39 µM). For `CC(C)(C)OC(=O)N1CC[C@H]2[C@@H](c3c[nH]c4ccc(Br)cc34)Nc3ccc(Cl)cc3[C@H]21`, the MIC was determined as 0.78 µg/mL (≈ 1.55 µM).

For `Fc1ccc2c([C@H]3Nc4ccc(Cl)cc4[C@H]4OCC[C@@H]34)c[nH]c2c1`, the MIC is 6.25 µg/mL (≈ 18.2 µM).

Regarding `CN1c2ccc(Cl)cc2[C@H]2OCC[C@H]2[C@H]1c1c[nH]c2ccc(Br)cc12`, the MIC was greater than 25 µg/mL.

As to `FC(F)(F)c1cccc2c1N[C@H](c1c[nH]c3ccc(Br)cc13)[C@@H]1CCO[C@H]21`, the minimal inhibitory concentration (MIC) came to 0.78 µg/mL (≈ 1.78 µM).

Take `Clc1ccc2c(c1)N(Cl)[C@H](c1c[nH]c3ccc(Br)cc13)[C@@H]1CCO[C@H]21`: the MIC turned out to be 1.56 µg/mL (≈ 3.56 µM). In the case of `Fc1cccc2c1N[C@H](c1c[nH]c3ccc(Br)cc13)[C@@H]1CCO[C@H]21`, the minimal inhibitory concentration (MIC) was determined as 0.78 µg/mL (≈ 2.01 µM). Regarding `COc1cccc2c1N[C@H](c1c[nH]c3ccc(Br)cc13)[C@@H]1CCO[C@H]21`, the MIC is 1.56 µg/mL (≈ 3.91 µM). Same read-out and setting: the value for `Clc1ccc2c(c1)[C@H]1NCC[C@H]1[C@@H](c1c[nH]c3ccc(Cl)cc13)N2` was 3.13 µg/mL (≈ 8.74 µM). Consider `Cc1[nH]c2ccccc2c1[C@H]1Nc2ccc(Cl)cc2[C@H]2OCC[C@@H]12`, for which the MIC is greater than 25 µg/mL. Turning to `Clc1ccc2c(c1)[C@H]1OCC[C@H]1[C@H](c1c[nH]c3ccccc13)N2`, the MIC was determined as 6.25 µg/mL (≈ 19.2 µM).

As to `Clc1ccc2c(c1)[C@H]1OCC[C@H]1[C@@H](c1c[nH]c3ccc(Cl)cc13)N2`, the MIC came out at 0.78 µg/mL (≈ 2.17 µM). Take `Clc1ccc2c(c1)[C@H]1OCC[C@H]1[C@H](c1c[nH]c3ccc(Br)cc13)N2`: the MIC worked out at 3.13 µg/mL (≈ 7.76 µM). The same measure, in the same setting: the value for `Brc1ccc2[nH]cc([C@H]3Nc4c(I)cccc4[C@H]4OCC[C@@H]34)c2c1` was less than 0.39 µg/mL; that for `Brc1ccc2[nH]cc([C@H]3Nc4ccc(CCCN5CCCCC5)cc4[C@H]4OCC[C@@H]34)c2c1` was 12.5 µg/mL (≈ 25.3 µM); that for `CC(C)(C)OC(=O)N1CC[C@@H]2[C@H]1c1cc(Cl)ccc1N[C@H]2c1c[nH]c2ccc(Br)cc12` was 1.56 µg/mL (≈ 3.1 µM). Consider `Clc1ccc2c(c1)[C@H]1OCC[C@H]1[C@H](c1c[nH]c3ccc(Cl)cc13)N2`, for which the MIC stood at 3.13 µg/mL (≈ 8.71 µM). The same measure, in the same setting: the result for `Clc1cc(Cl)c2c(c1)[C@H]1OCC[C@H]1[C@@H](c1c[nH]c3ccc(Br)cc13)N2` reads 1.56 µg/mL (≈ 3.56 µM). On the same count and under the same terms, the result for `Clc1ccc2c(c1)[C@H]1OCC[C@H]1[C@@H](c1c[nH]c3ccccc13)N2` reads greater than 25 µg/mL. For the molecule `NCc1cc(-c2c[nH]c3ccc(Br)cc23)nc2cc(Cl)ccc12`, the MIC is 0.78 µg/mL (≈ 2.02 µM). Same read-out and setting: the result for `Clc1ccc2ccc(-c3c[nH]c4ccc(Br)cc34)nc2c1` reads 0.6 µg/mL (≈ 1.68 µM).

For the molecule `Fc1ccc2c([C@@H]3Nc4ccc(Cl)cc4[C@H]4OCC[C@H]43)c[nH]c2c1`, the MIC turned out to be 12.5 µg/mL (≈ 36.5 µM). Same read-out and setting: the value for `Brc1ccc2[nH]cc([C@H]3Nc4ccc(C#CCN5CCCCC5)cc4[C@H]4OCC[C@@H]34)c2c1` was 1.56 µg/mL (≈ 3.18 µM); that for `Fc1ccc2c(c1)[C@H]1OCC[C@H]1[C@@H](c1c[nH]c3ccc(Br)cc13)N2` was 6.25 µg/mL (≈ 16.1 µM); that for `Clc1ccc2c(c1)[C@H]1NCC[C@H]1[C@H](c1c[nH]c3ccc(Cl)cc13)N2` was 6.25 µg/mL (≈ 17.4 µM).
